Data: ChEMBL document CHEMBL1130478, “Mono and bis double ester prodrugs of novel aminomethyl-THF 1-methylcarbapenems” (Bioorg Med Chem Lett, 1997)
≈ marks a conversion by molar mass, not a printed value.

Tests used:
Enterococcus faecium [1] = assay: In vitro for antibacterial activity against E. faecium(GC 1182) following pre-incubation in mouse serum; assay type: functional
Morganella morganii [2] = assay: In vitro antibacterial activity against M. morganii(GC 2213) following pre-incubation in mouse serum; assay type: functional
[3] = system: Stenotrophomonas maltophilia; assay: In vitro antibacterial activity against X. maltophilia(GC 562) following pre-incubation in mouse serum; assay type: functional
Enterobacter cloacae [4] = assay: In vitro antibacterial activity against E. cloacae(GC 2209) following preincubation in mouse serum; assay type: functional
[5] = system: Acinetobacter calcoaceticus; assay: In vitro antibacterial activity against Acinetobacter calcoaceticus (GC 756) following preincubation in mouse serum; assay type: functional
Escherichia coli [6] = assay: In vitro antibacterial activity expressed as MIC against E. coli(GC 1792) following pre-incubation in mouse serum; assay type: functional
Staphylococcus aureus [7] = assay: In vitro antibacterial activity against S. aureus(GC 2220 MRSA) following pre-incubation in mouse serum; assay type: functional
Escherichia coli [8] = assay: In vitro antibacterial activity expressed as MIC against E. coli(GC 1792) without pre-incubation in mouse serum; assay type: functional
Staphylococcus aureus [9] = assay: In vitro antibacterial activity against S. aureus(ATCC 29213) without pre-incubation in mouse serum; assay type: functional
Pseudomonas aeruginosa [10] = assay: In vitro antibacterial activity against P. aeruginosa(GC 1544 oprd) following pre-incubation in mouse serum; assay type: functional
Staphylococcus aureus [11] = assay: In vitro antibacterial activity against S aureus(ATCC 29213) following preincubation in mouse serum; assay type: functional
Staphylococcus aureus [12] = assay: In vitro antibacterial activity against S. aureus(GC 2220 MRSA) without pre-incubation in mouse serum; assay type: functional
[13] = system: Stenotrophomonas maltophilia; assay: In vitro antibacterial activity against X. maltophilia(GC 562) without pre-incubation in mouse serum; assay type: functional
Escherichia coli [14] = assay: In vitro antibacterial activity expressed as MIC against Escherichia coli (ATCC 25922) without pre-incubation in mouse serum; assay type: functional
Enterobacter cloacae [15] = assay: In vitro antibacterial activity against E. cloacae(GC 2209) without pre-incubation in mouse serum; assay type: functional
Pseudomonas aeruginosa [16] = assay: In vitro antibacterial activity against P. aeruginosa(GC 1544 oprd) without pre-incubation in mouse serum; assay type: functional
Morganella morganii [17] = assay: In vitro antibacterial activity against M. morganii(GC 2213) without pre-incubation in mouse serum; assay type: functional
Pseudomonas aeruginosa [18] = assay: In vitro antibacterial activity against Pseudomonas aeruginosa (ATCC 27853) following pre-incubation in mouse serum; assay type: functional
Mus musculus [19] = assay: Antibacterial activity against Escherichia coli (311) infection in mice after single oral dose, activity expressed as ED50; assay type: functional
Escherichia coli [20] = assay: In vitro antibacterial activity expressed as MIC against Escherichia coli (ATCC 25922) following pre-incubation in mouse serum; assay type: functional
Enterococcus faecalis [21] = assay: In vitro antibacterial activity against E. faecalis(GC 842) following pre-incubation in mouse serum; assay type: functional
Citrobacter freundii [22] = assay: In vitro antibacterial activity against C. freundii(GC 2211) without preincubation in mouse serum; assay type: functional
Mus musculus [23] = assay: Antibacterial activity against Escherichia coli (311) infection in mice after single subcutaneous dose, activity expressed as ED50; assay type: functional; conditions: sc
Pseudomonas aeruginosa [24] = assay: In vitro antibacterial activity against Pseudomonas aeruginosa (ATCC 27853) without pre-incubation in mouse serum; assay type: functional
[25] = system: Acinetobacter calcoaceticus; assay: In vitro antibacterial activity against Acinetobacter calcoaceticus (GC 756) without preincubation in mouse serum; assay type: functional
[26] = biological target: T1, Dipeptidase 1 (Sus scrofa) (UniProt P22412); assay: Relative hydrolysis by hog Dehydropeptidase; assay type: functional
T1 sequence (whole entry): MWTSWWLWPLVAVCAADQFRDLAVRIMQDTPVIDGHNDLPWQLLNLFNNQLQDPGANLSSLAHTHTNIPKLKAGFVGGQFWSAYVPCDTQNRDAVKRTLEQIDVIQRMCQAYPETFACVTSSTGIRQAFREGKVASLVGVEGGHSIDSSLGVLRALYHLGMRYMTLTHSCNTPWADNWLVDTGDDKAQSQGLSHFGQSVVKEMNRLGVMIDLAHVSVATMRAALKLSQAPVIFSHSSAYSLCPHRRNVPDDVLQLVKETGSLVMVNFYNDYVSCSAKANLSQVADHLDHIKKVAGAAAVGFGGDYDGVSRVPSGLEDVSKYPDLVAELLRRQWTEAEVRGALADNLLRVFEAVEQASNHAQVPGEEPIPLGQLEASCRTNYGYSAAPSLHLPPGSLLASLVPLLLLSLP

Enterococcus faecalis [27] = assay: In vitro antibacterial activity against E. faecalis(GC 842) without pre-incubation in mouse serum; assay type: functional
Escherichia coli [28] = assay: In vitro antibacterial activity expressed as MIC against E. coli(GC 2205) following pre-incubation in mouse serum; assay type: functional
Citrobacter freundii [29] = assay: In vitro antibacterial activity against C. freundii(GC 2211) following pre-incubation in mouse serum; assay type: functional
Escherichia coli [30] = assay: In vitro antibacterial activity expressed as MIC against E. coli(GC 2205) without pre-incubation in mouse serum; assay type: functional
Enterococcus faecium [31] = assay: In vitro for antibacterial activity against E. faecium(GC 1182) without pre-incubation in mouse serum; assay type: functional
Enterococcus faecalis [32] = assay: In vitro antibacterial activity against E. faecalis(GC 842) without pre-incubation in mouse serum
[33] = system: Stenotrophomonas maltophilia; assay: In vitro antibacterial activity against X. maltophilia(GC 562) without pre-incubation in mouse serum
Morganella morganii [34] = assay: In vitro antibacterial activity against M. morganii(GC 2213) without preincubation in mouse serum

SMILES	MIC (Enterococcus faecium [1])	MIC (Morganella morganii [2])	MIC [3]	MIC (Enterobacter cloacae [4])	MIC [5]	MIC (Escherichia coli [6])	MIC (Escherichia coli [8])	MIC (Staphylococcus aureus [9])	MIC (Staphylococcus aureus [12])	MIC (Escherichia coli [14])	MIC (Enterobacter cloacae [15])	MIC (Pseudomonas aeruginosa [16])	ED50 (Mus musculus [19])	MIC (Citrobacter freundii [22])	ED50 (Mus musculus [23])	MIC (Pseudomonas aeruginosa [24])	MIC [25]	Relative hydrolysis [26]	MIC (Escherichia coli [30])	MIC (Enterococcus faecium [31])	also measured
CCOC(=O)OCOC(=O)C1=C(S[C@@H]2CCO[C@@H]2CNC(=O)OCOC(=O)C(C)C)[C@H](C)C2[C@@H]([C@@H](C)O)C(=O)N12 (stereo partly specified)	128 µg/mL (≈ 217 µM)	1 µg/mL (≈ 1.7 µM)	> 128 µg/mL	0.12 µg/mL (≈ 0.204 µM)	4 µg/mL (≈ 6.8 µM)	0.06 µg/mL (≈ 0.102 µM)	16 µg/mL (≈ 27.2 µM)	4 µg/mL (≈ 6.8 µM)	128 µg/mL (≈ 217 µM)	32 µg/mL (≈ 54.4 µM)	> 128 µg/mL	> 128 µg/mL	0.56 mg/kg	> 128 µg/mL	0.4 mg/kg	> 128 µg/mL	> 128 µg/mL	11	20 µg/mL (≈ 34 µM)	> 128 µg/mL	MIC (Staphylococcus aureus [7]): 4 µg/mL (≈ 6.8 µM); MIC (Pseudomonas aeruginosa [10]): 32 µg/mL (≈ 54.4 µM); MIC (Staphylococcus aureus [11]): 0.06 µg/mL (≈ 0.102 µM); MIC [13]: > 128 µg/mL; MIC (Morganella morganii [17]): 128 µg/mL (≈ 217 µM); MIC (Pseudomonas aeruginosa [18]): 16 µg/mL (≈ 27.2 µM); MIC (Escherichia coli [20]): < 0.06 µg/mL; MIC (Enterococcus faecalis [21]): 2 µg/mL (≈ 3.4 µM); MIC (Enterococcus faecalis [27]): 64 µg/mL (≈ 109 µM); MIC (Escherichia coli [28]): 0.06 µg/mL (≈ 0.102 µM); MIC (Citrobacter freundii [29]): 0.25 µg/mL (≈ 0.425 µM)
CCCC(=O)OCOC(=O)NC[C@H]1OCC[C@H]1SC1=C(C(=O)[O-])N2C(=O)[C@H]([C@@H](C)O)C2[C@H]1C.[Na+] (stereo partly specified)	64 µg/mL	0.5 µg/mL	> 128 µg/mL	0.06 µg/mL	2 µg/mL	< 0.06 µg/mL	0.5 µg/mL	0.12 µg/mL	8 µg/mL	0.5 µg/mL	2 µg/mL	> 128 µg/mL	3.4 mg/kg	4 µg/mL	0.26 mg/kg	64 µg/mL	32 µg/mL	5.9	< 0.06 µg/mL	128 µg/mL	MIC (Staphylococcus aureus [7]): 1 µg/mL; MIC (Pseudomonas aeruginosa [10]): 16 µg/mL; MIC (Staphylococcus aureus [11]): 0.03 µg/mL; MIC [13]: > 128 µg/mL; MIC (Morganella morganii [17]): 2 µg/mL; MIC (Pseudomonas aeruginosa [18]): 8 µg/mL; MIC (Escherichia coli [20]): < 0.06 µg/mL; MIC (Enterococcus faecalis [21]): 1 µg/mL; MIC (Enterococcus faecalis [27]): 2 µg/mL; MIC (Escherichia coli [28]): < 0.06 µg/mL; MIC (Citrobacter freundii [29]): 0.12 µg/mL
CCOC(=O)OCOC(=O)C1=C(S[C@@H]2CCO[C@@H]2CN)[C@H](C)C2[C@@H]([C@@H](C)O)C(=O)N12.Cl (stereo partly specified)	128 µg/mL	0.5 µg/mL	> 128 µg/mL	0.12 µg/mL	2 µg/mL	< 0.06 µg/mL	0.5 µg/mL	1 µg/mL	64 µg/mL	0.5 µg/mL	2 µg/mL	> 128 µg/mL	8.2 mg/kg	4 µg/mL	0.62 mg/kg	128 µg/mL	64 µg/mL	11	1 µg/mL	128 µg/mL	MIC (Staphylococcus aureus [7]): 2 µg/mL; MIC (Pseudomonas aeruginosa [10]): 32 µg/mL; MIC (Staphylococcus aureus [11]): 0.03 µg/mL; MIC [13]: > 128 µg/mL; MIC (Morganella morganii [17]): 16 µg/mL; MIC (Pseudomonas aeruginosa [18]): 8 µg/mL; MIC (Escherichia coli [20]): < 0.06 µg/mL; MIC (Enterococcus faecalis [21]): 2 µg/mL; MIC (Enterococcus faecalis [27]): 16 µg/mL; MIC (Escherichia coli [28]): < 0.06 µg/mL; MIC (Citrobacter freundii [29]): 0.25 µg/mL
CC(C)C(=O)OCOC(=O)NC[C@H]1OCC[C@H]1SC1=C(C(=O)[O-])N2C(=O)[C@H]([C@@H](C)O)C2[C@H]1C.[Na+] (stereo partly specified)	64 µg/mL	0.5 µg/mL	> 128 µg/mL	0.06 µg/mL	4 µg/mL	< 0.06 µg/mL	0.5 µg/mL	0.25 µg/mL	8 µg/mL	0.25 µg/mL	1 µg/mL	> 128 µg/mL	5.1 mg/kg	2 µg/mL	0.59 mg/kg	64 µg/mL	32 µg/mL	2.9	0.12 µg/mL	> 128 µg/mL	MIC (Staphylococcus aureus [7]): 2 µg/mL; MIC (Pseudomonas aeruginosa [10]): 16 µg/mL; MIC (Staphylococcus aureus [11]): 0.03 µg/mL; MIC [13]: > 128 µg/mL; MIC (Morganella morganii [17]): 4 µg/mL; MIC (Pseudomonas aeruginosa [18]): 8 µg/mL; MIC (Escherichia coli [20]): < 0.06 µg/mL; MIC (Enterococcus faecalis [21]): 1 µg/mL; MIC (Enterococcus faecalis [27]): 4 µg/mL; MIC (Escherichia coli [28]): < 0.06 µg/mL; MIC (Citrobacter freundii [29]): 0.25 µg/mL
C[C@@H](O)[C@H]1C(=O)N2C(C(=O)O)=C(S[C@@H]3CCO[C@@H]3CN)[C@H](C)[C@H]12							< 0.06 µg/mL	< 0.06 µg/mL	1 µg/mL (≈ 2.92 µM)	< 0.06 µg/mL	< 0.06 µg/mL	16 µg/mL (≈ 46.7 µM)	3.8 mg/kg	< 0.06 µg/mL	0.34 mg/kg	8 µg/mL (≈ 23.4 µM)	2 µg/mL (≈ 5.84 µM)	8.5	< 0.06 µg/mL	64 µg/mL (≈ 187 µM)	MIC (Enterococcus faecalis [32]): 0.5 µg/mL (≈ 1.46 µM); MIC [33]: > 128 µg/mL; MIC (Morganella morganii [34]): 0.5 µg/mL (≈ 1.46 µM)
